Laboratory results as given in US20250230511A1, “METHODS AND REAGENTS FOR […] VECTOR NUCLEIC ACID PRODUCTS” (Sana Biotechnology, Inc., priority 2021, published 2025).

Tests used:
[1] = tested on: VSV-G pseudotyped lentiviral vector (VG); format: cell-based
[2] = tested on: VSV-G pseudotyped lentiviral vector (VG); format: cell-based; remark: listed apart in the source

Cc1ccnc2c1NC(=O)c1cccnc1N2C1CC1 [Nevirapine]
determination of VCN based on assay of the WPRE amplicon [1]: not substantially impacted | determination of VCN based on assay of the DelU3 amplicon [2]: completely ablated
